Measured values from article PMC9607164, “Rational Design, Synthesis and Biological Evaluation of Novel Pyrazoline-Based Antiproliferative Agents in MCF-7 Cancer Cells” (Pharmaceuticals, 2022).
Like-named read-outs stand apart in the source and are kept apart here.

Legend:
[1] = tested on: breast cancer cells MCF-7; conditions: cited from earlier work
[2] = tested on: MCF-10A normal breast cells; test: MTT cytotoxicity assay on MCF-10A; format: cell-based; conditions: Homo sapiens, 48 h, n = 3, read-out: IC50 ± SD, MCF-10A
Protocol: (§1) Both breast cancer (MCF-7) and normal breast (MCF-10A) cells were purchased from National Research Institute, Egypt, and maintained in complete media of RPMI-1640 medium L-Glutamine (Lonza Verviers SPRL, Belgium, cat#12-604F). Cells were incubated following standard tissue culture work. Cell viability was measured 48 h later, utilizing MTT colorimetric assay (Promega, Madison, WI, USA). Absorbance was consequently assessed (at 570 nm) using an ELISA microplate reader (BIO-RAD, model iMark, Tokyo, Japan). Using GraphPad Prism 7, the IC50 values were determined, and the viability at each concentration was determined in comparison to the control.

HER2 Kinase = target: T1, HER2 Kinase (Homo sapiens, UniProt P04626); test: HER2 Kinase Assay Kit (BPS Bioscience); format: biochemical; conditions: mean ± SD of three replicates, five concentrations
T1 construct: purchased BPS Bioscience 40721
Protocol: (§2) Compounds’ autophosphorylation percentage inhibition was computed according to the following equation: […] , then IC50 values were calculated using GraphPad prism software.

MCF-7 cancer cells = test: MTT cytotoxicity assay on MCF-7; format: cell-based; conditions: MTT assay, 48 h, n = 3, NA: Non-Active, read-out: IC50 ± SD, MCF-7
Protocol: as §1

EGFR Kinase = target: T2, EGFR Kinase (Homo sapiens, UniProt P00533); test: EGFR Kinase Assay Kit (BPS Bioscience); format: biochemical; conditions: mean ± SD of three replicates, five concentrations
T2 construct: purchased BPS Bioscience 40321
Protocol: as §2

[3] = format: in vivo; conditions: 10 mg/kg BW, IP; MCF-7 control 32.28 g, normal 24.5 g
Excerpt: In vivo experiments for lethal dose (LD50), experimental design, tumor mass, blood parameters, histopathological examinations were accomplished as previously described. After inoculating the tumor cells, masses of the solid tumor started to appear ten days later. […]. Animals from each group were sacrificed, and their blood was drawn to measure hemoglobin (Hb), red blood cell (RBC), white blood cell (WBC), and liver enzymes (ALT, AST, albumin, and total protein) levels.

[4] = reported pyrazoline-based agents

T1 sequence (P04626 23-1255): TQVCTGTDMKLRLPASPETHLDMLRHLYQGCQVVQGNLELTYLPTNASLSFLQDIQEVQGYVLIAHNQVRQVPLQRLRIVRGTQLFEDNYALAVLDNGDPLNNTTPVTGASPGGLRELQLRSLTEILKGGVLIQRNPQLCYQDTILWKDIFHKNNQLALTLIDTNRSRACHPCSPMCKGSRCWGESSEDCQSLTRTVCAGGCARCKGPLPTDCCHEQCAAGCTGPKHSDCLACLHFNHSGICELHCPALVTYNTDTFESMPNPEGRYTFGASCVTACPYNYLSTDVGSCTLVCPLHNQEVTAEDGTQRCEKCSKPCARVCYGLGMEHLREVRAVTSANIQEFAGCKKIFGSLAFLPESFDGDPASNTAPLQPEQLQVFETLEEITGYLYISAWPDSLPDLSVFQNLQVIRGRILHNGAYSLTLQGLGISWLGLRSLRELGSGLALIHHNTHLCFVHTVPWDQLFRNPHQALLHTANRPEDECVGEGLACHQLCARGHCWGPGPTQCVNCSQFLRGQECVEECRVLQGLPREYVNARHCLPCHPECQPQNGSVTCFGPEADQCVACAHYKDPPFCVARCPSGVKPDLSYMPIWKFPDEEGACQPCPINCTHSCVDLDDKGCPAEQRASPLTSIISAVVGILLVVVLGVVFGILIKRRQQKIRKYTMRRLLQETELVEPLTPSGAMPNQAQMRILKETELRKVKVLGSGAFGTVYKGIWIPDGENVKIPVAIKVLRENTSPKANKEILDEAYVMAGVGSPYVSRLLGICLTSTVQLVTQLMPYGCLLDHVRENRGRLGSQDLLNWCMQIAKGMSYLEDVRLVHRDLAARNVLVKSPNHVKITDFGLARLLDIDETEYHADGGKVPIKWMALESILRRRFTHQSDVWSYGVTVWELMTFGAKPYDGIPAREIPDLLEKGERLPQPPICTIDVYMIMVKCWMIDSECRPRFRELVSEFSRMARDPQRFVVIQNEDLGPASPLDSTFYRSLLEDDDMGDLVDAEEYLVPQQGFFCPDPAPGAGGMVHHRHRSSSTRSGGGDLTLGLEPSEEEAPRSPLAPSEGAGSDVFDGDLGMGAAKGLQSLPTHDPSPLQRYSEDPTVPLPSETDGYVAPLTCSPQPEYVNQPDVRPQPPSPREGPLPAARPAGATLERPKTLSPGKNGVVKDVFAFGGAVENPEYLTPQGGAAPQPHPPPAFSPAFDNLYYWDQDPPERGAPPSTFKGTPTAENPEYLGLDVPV
T2 sequence (P00533 25-1210): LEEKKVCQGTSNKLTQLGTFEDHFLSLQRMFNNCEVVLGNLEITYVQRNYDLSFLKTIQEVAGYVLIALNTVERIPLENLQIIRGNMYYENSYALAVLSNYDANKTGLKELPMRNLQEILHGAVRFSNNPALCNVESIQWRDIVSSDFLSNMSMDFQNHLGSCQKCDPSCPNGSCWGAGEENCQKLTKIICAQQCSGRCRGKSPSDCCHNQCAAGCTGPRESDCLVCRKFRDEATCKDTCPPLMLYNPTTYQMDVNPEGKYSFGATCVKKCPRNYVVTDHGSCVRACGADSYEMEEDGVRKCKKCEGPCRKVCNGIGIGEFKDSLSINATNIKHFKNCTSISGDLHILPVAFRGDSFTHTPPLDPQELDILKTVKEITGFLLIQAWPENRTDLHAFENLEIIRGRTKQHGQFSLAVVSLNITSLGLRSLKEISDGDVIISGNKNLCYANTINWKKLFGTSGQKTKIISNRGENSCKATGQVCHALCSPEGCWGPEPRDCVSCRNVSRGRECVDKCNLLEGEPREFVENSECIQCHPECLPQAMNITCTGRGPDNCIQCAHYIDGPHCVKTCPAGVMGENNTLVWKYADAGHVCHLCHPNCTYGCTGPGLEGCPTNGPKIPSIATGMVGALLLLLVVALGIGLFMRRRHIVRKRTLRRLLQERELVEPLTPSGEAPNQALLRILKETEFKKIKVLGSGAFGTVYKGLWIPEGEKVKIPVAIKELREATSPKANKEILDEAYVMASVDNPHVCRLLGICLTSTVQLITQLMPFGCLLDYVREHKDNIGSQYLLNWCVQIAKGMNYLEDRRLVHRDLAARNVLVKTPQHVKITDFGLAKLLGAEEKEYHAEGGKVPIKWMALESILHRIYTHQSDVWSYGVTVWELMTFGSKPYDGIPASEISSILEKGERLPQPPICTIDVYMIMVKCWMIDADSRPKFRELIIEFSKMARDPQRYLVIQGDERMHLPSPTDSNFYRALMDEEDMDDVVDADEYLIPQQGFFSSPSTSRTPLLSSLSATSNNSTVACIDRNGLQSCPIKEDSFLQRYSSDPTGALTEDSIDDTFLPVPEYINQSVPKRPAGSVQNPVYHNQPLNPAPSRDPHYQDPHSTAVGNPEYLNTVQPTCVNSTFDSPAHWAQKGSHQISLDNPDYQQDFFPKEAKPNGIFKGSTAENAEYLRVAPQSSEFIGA

Structure (SMILES) | IC50 [2] [µM] | melting point [°C] | IC50 (MCF-7 cancer cells; Homo sapiens, MCF7, 48 h) [µM] | further results
Cc1nc(Nc2ncc(C(=O)Nc3c(C)cccc3Cl)s2)cc(N2CCN(CCO)CC2)n1 [Dasatinib] | – | – | – | MCF-7 (measure not named) ([1]; Figure 2, reported agent): 17.03 µM
COc1ccc(C2=NN(c3nc(C)c(C(C)=O)s3)C(c3ccc(Cl)cc3)C2)cc1OC (stereo not drawn) [Compound 9c, 1-(2-(5-(4-Chlorophenyl)-3-(3,4-dimethoxyphenyl)-4,5-dihydro-1H-pyrazol-1-yl)-4-methylthiazol-5-yl)ethan-1-one] | ≥ 50 | 215 to 218 | – | –
COc1ccc(C2=NN(c3nc(-c4ccc(Cl)cc4)cs3)C(c3ccccc3)C2)cc1OC (stereo not drawn) [Compound 6d, 4-(4-Chlorophenyl)-2-(3-(3,4-dimethoxyphenyl)-5-phenyl-4,5-dihydro-1H-pyrazol-1-yl)thiazole] | 45.2 ± 1.24 | 195 to 198 | – | –
O=C1CCC(=O)N1CC(=O)N1N=C(c2ccccc2)CC1c1ccccc1 (stereo not drawn) [II] | – | – | – | IC50 [1, 4]: 0.42 µM
CCOC(=O)c1sc(N2N=C(c3ccc(OC)c(OC)c3)CC2c2ccccc2)nc1C (stereo not drawn) [Compound 9d, Ethyl 2-(3-(3,4-Dimethoxyphenyl)-5-phenyl-4,5-dihydro-1H-pyrazol-1-yl)-4-methylthiazole-5-carboxylate] | 24.3 ± 1.39 | 215 to 218 | – | –
COc1ccc(C2CC(c3ccc(OC)c(OC)c3)=NN2c2nc(-c3ccc(C)cc3)cs2)cc1 (stereo not drawn) [Compound 6f, 2-(3-(3,4-Dimethoxyphenyl)-5-(4-methoxyphenyl)-4,5-dihydro-1H-pyrazol-1-yl)-4-(p-tolyl)thiazole] | 35.4 ± 1.84 | 150 to 152 | 11.1 ± 0.85 | IC50 (HER2 Kinase): 0.12 ± 0.025 µM; IC50 (EGFR Kinase): 0.23 ± 0.024 µM
CCOC(=O)c1sc(N2N=C(c3ccc(OC)c(OC)c3)CC2c2ccc(OC)cc2)nc1C (stereo not drawn) [Compound 9e, Ethyl 2-(3-(3,4-Dimethoxyphenyl)-5-(4-methoxyphenyl)-4,5-dihydro-1H-pyrazol-1-yl)-4-methylthiazole-5-carboxylate] | 43.6 ± 1.85 | 169 to 171 | 18.9 ± 1.03 | –
COc1ccc(C2=NN(c3nc(C)c(C(C)=O)s3)C(c3ccccc3)C2)cc1OC (stereo not drawn) [Compound 9a, 1-(2-(3-(3,4-Dimethoxyphenyl)-5-phenyl-4,5-dihydro-1H-pyrazol-1-yl)-4-methylthiazol-5-yl)ethan-1-one] | 18.9 ± 1.09 | 235 to 238 | 34.2 ± 1.68 | –
COc1ccc(C2CC(c3ccc(OC)c(OC)c3)=NN2c2nc(C)c(C(C)=O)s2)cc1 (stereo not drawn) [Compound 9b, 1-(2-(3-(3,4-Dimethoxyphenyl)-5-(4-methoxyphenyl)-4,5-dihydro-1H-pyrazol-1-yl)-4-methylthiazol-5-yl)ethan-1-one] | 26.3 ± 1.07 | 213 to 215 | 31.7 ± 1.96 | –
COc1ccc(C2CC(c3ccc(OC)c(OC)c3)=NN2C(N)=S)cc1 (stereo not drawn) [Compound 3b, 3-(3,4-Dimethoxyphenyl)-5-(4-methoxyphenyl)-4,5-dihydro-1H-pyrazole-1-carbothioamide] | 34.8 ± 1.35 | 221 to 223 | 23.6 ± 0.72 | –
COc1ccc(C2=NN(c3nc(-c4ccc(F)cc4)cs3)C(c3ccccc3)C2)cc1OC (stereo not drawn) [Compound 6c, 2-(3-(3,4-Dimethoxyphenyl)-5-phenyl-4,5-dihydro-1H-pyrazol-1-yl)-4-(4-fluorophenyl)thiazole] | ≥ 50 | 135 to 140 | 18.7 ± 0.84 | –
COc1ccc(C2=NN(c3nc(-c4ccc(Cl)cc4)cs3)C(c3ccc(Cl)cc3)C2)cc1OC (stereo not drawn) [Compound 6l, 4-(4-Chlorophenyl)-2-(5-(4-chlorophenyl)-3-(3,4-dimethoxyphenyl)-4,5-dihydro-1H-pyrazol-1-yl)thiazole] | 35.7 ± 1.85 | 195 to 197 | 17.6 ± 0.97 | –
COc1ccc(C2=NN(c3nc(-c4ccc(C)cc4)cs3)C(c3ccc(Cl)cc3)C2)cc1OC (stereo not drawn) [Compound 6j, 2-(5-(4-Chlorophenyl)-3-(3,4-dimethoxyphenyl)-4,5-dihydro-1H-pyrazol-1-yl)-4-(p-tolyl)thiazole] | ≥ 50 | 189 to 191 | – | –
COc1ccc(C2=NN(c3nc(-c4ccc(C)cc4)cs3)C(c3ccccc3)C2)cc1OC (stereo not drawn) [Compound 6b, 2-(3-(3,4-Dimethoxyphenyl)-5-phenyl-4,5-dihydro-1H-pyrazol-1-yl)-4-(p-tolyl)thiazole] | ≥ 50 | 210 to 215 | 13.4 ± 0.98 | –
COc1ccc(C2=NN(c3nc(-c4ccccc4)cs3)C(c3ccccc3)C2)cc1OC (stereo not drawn) [Compound 6a, 2-(3-(3,4-Dimethoxyphenyl)-5-phenyl-4,5-dihydro-1H-pyrazol-1-yl)-4-phenylthiazole] | ≥ 50 | 202 to 205 | – | –
COc1ccc(C2=NN(c3nc(-c4ccccc4)cs3)C(c3ccc(Cl)cc3)C2)cc1OC (stereo not drawn) [Compound 6i, 2-(5-(4-Chlorophenyl)-3-(3,4-dimethoxyphenyl)-4,5-dihydro-1H-pyrazol-1-yl)-4-phenylthiazole] | 15.8 ± 1.08 | 208 to 210 | 45.4 ± 1.87 | –
COc1ccc(C2=NN(C(N)=S)C(c3ccc(Cl)cc3)C2)cc1OC (stereo not drawn) [Compound 3c, 5-(4-Chlorophenyl)-3-(3,4-dimethoxyphenyl)-4,5-dihydro-1H-pyrazole-1-carbothioamide] | ≥ 50 | 230 to 232 | 11.1 | IC50 (HER2 Kinase): 0.07 ± 0.018 µM; IC50 (MCF-7 cancer cells): 11.2 ± 0.54 µM; IC50 (EGFR Kinase): 0.067 ± 0.009 µM
COc1ccc(C2=NN(C(N)=S)C(c3ccccc3)C2)cc1OC (stereo not drawn) [Compound 3a, 3-(3,4-Dimethoxyphenyl)-5-phenyl-4,5-dihydro-1H-pyrazole-1-carbothioamide] | 36.5 ± 1.15 | 188 to 190 | – | –
COc1ccc2ccc(=O)oc2c1C1=NN(S(=O)(=O)c2ccc(C)cc2)C(c2ccccc2)C1 (stereo not drawn) [III] | – | – | – | IC50 [1, 4]: 34.1 µM
COc1ccc(C2CC(c3ccc(OC)c(OC)c3)=NN2c2nc(-c3ccc(Cl)cc3)cs2)cc1 (stereo not drawn) [Compound 6h, 4-(4-Chlorophenyl)-2-(3-(3,4-dimethoxyphenyl)-5-(4-methoxyphenyl)-4,5-dihydro-1H-pyrazol-1-yl)thiazole] | 26.5 ± 1.59 | 149 to 151 | 35.2 ± 1.27 | –
O=C1c2ccccc2C(=O)N1CCc1csc(N(/N=C/c2cc(Cl)cc(Cl)c2)C(=O)CCl)n1 [V] | – | – | – | IC50 ([1]; reported thiazole-based agent): 9.06 µM
CC(=O)N1N=C(c2ccc(OC3OC4OC5(C)CCC6C(C)CCC(C3C)C46OO5)cc2)CC1c1ccccc1 (stereo not drawn) [I] | – | – | – | GI50 ([1]; reported pyrazoline-based agent): 0.13 µM
CS(=O)(=O)CCNCc1ccc(-c2ccc3ncnc(Nc4ccc(OCc5cccc(F)c5)c(Cl)c4)c3c2)o1 [Lapatinib, reference compound] | ≥ 50 | – | 7.45 | mice weight [3]: 27.35 g
COc1ccc(C2CC(c3ccc(OC)c(OC)c3)=NN2c2nc(-c3ccc(F)cc3)cs2)cc1 (stereo not drawn) [Compound 6g, 2-(3-(3,4-Dimethoxyphenyl)-5-(4-methoxyphenyl)-4,5-dihydro-1H-pyrazol-1-yl)-4-(4-fluorophenyl)thiazole] | 24.5 ± 1.01 | 140 to 143 | 15.4 ± 0.79 | –
CCOC(=O)c1sc(N2N=C(c3ccc(OC)c(OC)c3)CC2c2ccc(Cl)cc2)nc1C (stereo not drawn) [Compound 9f, Ethyl 2-(5-(4-Chlorophenyl)-3-(3,4-dimethoxyphenyl)-4,5-dihydro-1H-pyrazol-1-yl)-4-methylthiazole-5-carboxylate] | ≥ 50 | 197 to 200 | 8.35 ± 0.29 | IC50 (HER2 Kinase): 0.14 ± 0.006 µM; IC50 (EGFR Kinase): 0.051 ± 0.003 µM
